Data from patent US20110288036A1, “Methods for Treating or Preventing Vascular Graft Failure” (priority 2010, published 2011).

Columns and labels:
MK2 = molecular target: T1, MK2 (Homo sapiens, UniProt P49137); test: MK2 radiometric kinase assay; assay type: biochemical
T1 construct: purchased Millipore (IC50 Profiler Express / KinaseProfiler service)
Text: (§1) A commercial radiometric assay service was used to test the specificity and potency of MMI-0100 ([…]; SEQ ID NO: 1) by measuring its half maximal inhibitory concentrations (IC50). This quantitative assay measures how much MK2 inhibitor (MMI-0100; […] (SEQ ID NO: 1)) is needed to inhibit 50% of a given biological process or component of a process (i.e., an enzyme, cell, or cell receptor). Specifically, in these assays, a positively charged substrate is phosphorylated with a radiolabeled phosphate group from an ATP if the kinase is not inhibited by an inhibitor peptide. The positively charged substrate then is attracted to a negatively charged filter membrane, quantified with a scintillation counter, and compared to a 100% activity control. ATP concentrations within 15 μM of the apparent Km for ATP were chosen since an ATP concentration near the Km may allow for the kinases to have the same relative amount of phosphorylation activity. […]
For the MK2 radiometric assay, 5-10 mU of MK2 was incubated with 50 mM Na b-glycerophosphate pH 7.5, 0.1 mM EGTA, 30 μM KKLNRTLSVA (SEQ ID NO: 34; a substrate peptide for MK2), 10 mM MgAcetate, and 10 μM of [y-^33P-ATP] in a final reaction volume of 25 μl. […] The washed P30 filtermat was dried and its radioactivity was measured by scintillation counter.
(§2) IC50 values for inhibitor peptides were determined using Millipore's IC50 Profiler Express service. […]

P38MAPK = test: p38 MAPK radiometric kinase assay; assay type: biochemical; settings: peptide 100 μM
Text: as §1, with “control.” for “control. ATP concentrations within 15 μM of the apparent Km for ATP were chosen since an ATP concentration near the Km may allow for the kinases to have the same relative amount of phosphorylation activity.”
For the p38 MAPK (p38 Mitogen-Activated Protein Kinase) radiometric assay, 5-10 mU of p38 MAPK was incubated with 25 mM Tris pH 7.5, 0.02 mM EGTA, 0.33 mg/mL myelin basic protein (a substrate for p38 MAPK), 10 mM MgAcetate, and 10 μM of [y-^33P-ATP] in the final reaction volume of 25 μl. […] The washed P30 filtermat was dried and its radioactivity was measured by scintillation counter.
as §2

[1] = system: vein graft (inferior vena cava) intimal hyperplasia; test: Mouse vein graft model; assay type: in vivo
Protocol: 12-week-old C57BL/6 wild type mice (Harlan) were used for all experiments, as previously described (Muto, A. et al., J. Exp. Med., 2011, 208(3): 561-575, incorporated herein by reference in its entirety). […] Prior to implantation, the vein was treated ex vivo with 100 μM of MMI-0100 ([…] (SEQ ID NO: 1)) peptide solution, or control PBS solution, for 20 minutes at room temperature.
To implant the vein graft, a midline incision was made in the abdomen of a recipient mouse and the infrarenal abdominal aorta was exposed. The abdominal aorta was temporarily occluded with atraumatic micro-clamps and a segment corresponding to the length of the vein graft was excised. The vein was sutured into the arterial circulation using 10-0 nylon in continuous fashion.
Vein grafts were followed postoperatively using the Vevo770® High-Resolution Imaging System (VisualSonics, Toronto, Canada), with weekly measurements of graft wall thickness. At 28 days after surgery, mice were sacrificed to allow explantation of the vein graft. Tissue was either frozen with RNA stabilization reagent (Qiagen) or explanted for paraffin embedding after circulatory flushing with ice-cold PBS followed by 4% paraformaldehyde perfusion-fixation. Vein graft wall thickness, lumen diameter, and outer wall diameter (elastic lamina) were measured in elastin-stained sections using computer morphometry (ImageJ).
Vein graft samples were fixed as described above and harvested for histology. Specimens were embedded in paraffin and cut in cross section (5 μm). Hematoxylin & Eosin, Masson trichrome, and van Gieson elastin staining were performed for all samples. Cells were cultured on gelatin-coated cover slips and fixed with methanol.
All sections were treated for antigen retrieval using 10 mmol/L citrate buffer (pH 6.0) prior to boiling or proteinase K (20 μg/ml) treatment, at room temperature, for 10-15 minutes. Immunohistochemical detection was performed using DAB as well as NovaRED® substrate (Vector). Sections were counterstained with Mayer's Hematoxylin.
The efficacy of MMI-0100 ([…]; SEQ ID NO: 1) in treating intimal hyperplasia in vivo was examined using a mouse model of vein bypass graft. […] The IVC was soaked in a 100 μM solution of MMI-0100 ([…]; SEQ ID NO: 1) at room temperature for 20 minutes prior to implantation into a host (C57BL/6J) mouse to bypass the infrarenal aorta. Five treated and six untreated veins were transplanted for a total of 11 transplanted animals. Vein graft wall thickness was determined using a […] ultrasound imaging system at each week.
In order to further confirm the inhibitory effects of MMI-0100 ([…]; SEQ ID NO: 1) on intimal hyperplasia development in an […] model, the effect of MMI-0100 ([…]; SEQ ID NO: 1) was investigated in a follow-up study using a mouse model of vein graft adaptation. To this end, vein grafts were treated with PBS or 100 μM of MMI-0100 ([…]; SEQ ID NO: 1) for 20 minutes prior to implantation; the thickness of the vein grafts then was examined weekly with ultrasound.

[2] = system: mouse lung endothelial cells (MLEC); test: Murine endothelial cell apoptosis, annexin V flow cytometry; assay type: cell-based; settings: 24 hours; any dose
Protocol: The apoptotic effect of MMI-0100 ([…]; SEQ ID NO: 1) on mouse lung endothelial cells (MLEC) was measured at 24 hours after MMI-0100 ([…]; SEQ ID NO: 1) treatment. MLEC were removed from the tissue culture plate by trypsin, and re-suspended at a concentration of 1.0×10^6 cells/ml. Apoptotic cells were detected by AlexaFluor® 488 annexin V/Dead Cell Apoptosis Kit (Invitrogen) using flow cytometry sorting analysis.

T1 sequence (P49137 whole entry, species assumed): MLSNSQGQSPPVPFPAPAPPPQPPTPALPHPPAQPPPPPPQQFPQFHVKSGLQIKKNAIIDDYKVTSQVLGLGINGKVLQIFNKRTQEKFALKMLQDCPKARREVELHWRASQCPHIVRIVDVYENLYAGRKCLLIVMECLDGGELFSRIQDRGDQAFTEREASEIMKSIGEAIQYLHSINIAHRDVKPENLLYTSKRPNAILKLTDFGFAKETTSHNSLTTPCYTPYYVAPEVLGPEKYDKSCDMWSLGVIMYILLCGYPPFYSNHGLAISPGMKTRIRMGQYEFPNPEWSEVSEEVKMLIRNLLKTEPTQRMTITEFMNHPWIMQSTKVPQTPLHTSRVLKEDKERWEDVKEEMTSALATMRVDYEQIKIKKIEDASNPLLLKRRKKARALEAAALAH

YARAAARQARAKALARQLGVAA [MMI-0100]
inhibition of MK2 activity (MK2; concentration used for specificity profiling (Table 2)): > 95% | Percent Activity, MK2 (MK2; peptide 100 μM): <5% | Percent Activity, P38MAPK (P38MAPK): 60% | reduced wall thickness compared to control grafts (histological staining) ([1]; follow-up study, 100 μM 20 minutes ex vivo, 4 weeks): 72% | F4/80-positive cells infiltrating into vein grafts ([1]; follow-up study, 100 μM 20 minutes ex vivo, 4 weeks, immunohistochemistry): fewer F4/80-positive cells | vein graft wall thickness ratio ([1]; follow-up study, 100 μM 20 minutes ex vivo, 4 weeks, ultrasound, control 4.7-fold): 2.6 fold | vein graft wall thickness, weekly ultrasound ([1]; follow-up study, 100 μM 20 minutes ex vivo, weeks 1-4): diminished wall thickness at all postoperative time points | vessel wall thickness relative to originally harvested IVC ([1]; graft soaked 100 μM 20 minutes, 4 weeks, ultrasound, control almost five times): about 2.5 times | EC apoptosis [2]: did not induce EC apoptosis at any dose
